Measured values: patent US6274557A, “Inhibition of nitric oxide synthase by amino acids and dipeptides” (Northwestern University, priority 1999, dated 2001)
pIC50, pKi: −log10 of the molar value. Where “and” joins values, the source holds several entries; their conditions need not be identical. Identical values can stand only once. Like-named read-outs stand apart in the source and are kept apart here. Peptide text beside a SMILES is read from it.

Legend:
[1] = biological target: T1, recombinant bovine endothelial nitric oxide synthase (eNOS) (Bos taurus, UniProt P29473); experiment: Hemoglobin capture assay of nitric oxide formation, eNOS; format: biochemical; conditions: for selectivity of eNOS over iNOS: Table 2 dipeptides
T1 construct: made in house; host or cells: E. coli
Protocol: (§1) Nitric oxide formation was measured by using the hemoglobin capture assay. […] The production of nitric oxide by eNOS was measured as described. […] All assays were in a final volume of 600 μL and were initiated with enzyme.
(§2) The reversible inhibition of NOS by the dipeptide analogs was studied under initial rate conditions with the hemoglobin assay as described above. […] With various L-arginine and inhibitor concentrations.

[2] = biological target: neuronal nitric oxide synthase (nNOS) from bovine brain (Bos taurus, UniProt A0A3Q1M6M2); experiment: Hemoglobin capture assay of nitric oxide formation, nNOS; conditions: for nNOS/iNOS selectivity / nNOS/eNOS selectivity: Table 2 dipeptides; for nNOS/iNOS selectivity: in favor of nNOS over iNOS; for nNOS/eNOS selectivity: nNOS over eNOS; for most potent inhibitors (based on isoform inhibition data): dipeptide amides of Table 3; for time-dependent inhibition of any of the isoforms: nNOS, iNOS and eNOS
Protocol: as §1, §2

[3] = biological target: recombinant murine macrophage nitric oxide synthase (iNOS) (Mus musculus, UniProt P29477); experiment: Hemoglobin capture assay of nitric oxide formation, iNOS; conditions: for iNOS/eNOS selectivity: Table 2 dipeptides
Protocol: as §1, §2

[4] = test system: nitric oxide synthases (nNOS, iNOS, eNOS); conditions: literature; cited from earlier work
[5] = read-out: Ki nNOS, Table 2, Dixon plots
[6] = read-out: Ki iNOS, Table 2, Dixon plots, ^a = uncompetitive inhibition

Sequence of neuronal nitric oxide synthase (nNOS) from bovine brain (A0A3Q1M6M2 entry or part of it): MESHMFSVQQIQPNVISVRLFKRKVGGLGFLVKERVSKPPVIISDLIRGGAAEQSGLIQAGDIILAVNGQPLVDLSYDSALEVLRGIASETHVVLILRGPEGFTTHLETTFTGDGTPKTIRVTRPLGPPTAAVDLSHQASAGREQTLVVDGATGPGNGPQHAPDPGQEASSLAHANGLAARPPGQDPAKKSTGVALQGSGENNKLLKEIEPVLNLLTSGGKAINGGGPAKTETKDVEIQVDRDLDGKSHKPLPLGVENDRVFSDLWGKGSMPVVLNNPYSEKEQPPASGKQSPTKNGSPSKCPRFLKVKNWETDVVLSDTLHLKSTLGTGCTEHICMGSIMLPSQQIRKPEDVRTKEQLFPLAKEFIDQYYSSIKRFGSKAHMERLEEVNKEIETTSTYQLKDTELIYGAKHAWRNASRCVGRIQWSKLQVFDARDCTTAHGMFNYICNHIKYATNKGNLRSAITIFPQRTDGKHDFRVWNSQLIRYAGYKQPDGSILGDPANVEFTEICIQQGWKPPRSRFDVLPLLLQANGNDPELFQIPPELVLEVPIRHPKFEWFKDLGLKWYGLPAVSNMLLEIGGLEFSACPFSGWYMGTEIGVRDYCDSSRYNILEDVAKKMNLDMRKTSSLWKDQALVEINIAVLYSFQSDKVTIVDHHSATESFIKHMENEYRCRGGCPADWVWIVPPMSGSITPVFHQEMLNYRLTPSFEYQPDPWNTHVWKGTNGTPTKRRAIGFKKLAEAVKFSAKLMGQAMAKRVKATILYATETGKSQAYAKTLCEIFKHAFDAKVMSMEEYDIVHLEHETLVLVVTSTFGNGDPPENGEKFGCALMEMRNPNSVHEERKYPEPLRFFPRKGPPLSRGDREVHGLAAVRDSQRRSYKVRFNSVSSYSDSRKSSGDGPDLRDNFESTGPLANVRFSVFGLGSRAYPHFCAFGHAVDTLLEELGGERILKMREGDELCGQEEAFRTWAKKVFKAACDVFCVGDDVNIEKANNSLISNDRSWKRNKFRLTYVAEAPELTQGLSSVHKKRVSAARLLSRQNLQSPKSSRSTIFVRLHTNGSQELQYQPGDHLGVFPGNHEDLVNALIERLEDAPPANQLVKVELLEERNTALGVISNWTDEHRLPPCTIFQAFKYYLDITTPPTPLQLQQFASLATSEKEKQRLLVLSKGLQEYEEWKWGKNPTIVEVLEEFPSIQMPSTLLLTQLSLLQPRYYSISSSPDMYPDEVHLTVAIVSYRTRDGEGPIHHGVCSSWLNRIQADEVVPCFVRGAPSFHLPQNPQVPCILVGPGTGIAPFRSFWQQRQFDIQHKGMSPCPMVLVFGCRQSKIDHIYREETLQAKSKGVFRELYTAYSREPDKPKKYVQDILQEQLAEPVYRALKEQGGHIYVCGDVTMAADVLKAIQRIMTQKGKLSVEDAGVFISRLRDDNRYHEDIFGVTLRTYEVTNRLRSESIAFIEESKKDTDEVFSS

Row | SMILES | pKi ([1]; Table 2, Dixon plots) | nNOS/iNOS selectivity [2] | nNOS/eNOS selectivity [2] | pKi [2, 5] | iNOS/eNOS selectivity [3] | pKi [3, 6] | also measured
1 | C=CCNC(=N)NCCC[C@H](N)C(=O)O [allyl, N^ω -allyl-L-arginine, reference compound] |  |  |  |  |  |  | pKi ([1]; Table 1): 5.51; pKi [2]: 6.70; Selectivity nNOS/eNOS [2]: 15 and 15.5; pKi [3]: 5.68
2 | CCCNC(=N)NCCC[C@H](N)C(=O)O [propyl, N^ω -Propyl-L-arginine] |  |  |  |  |  |  | type of reversible inhibition of eNOS ([1]; Cornish-Bowden replots): competitive inhibitor; pKi ([1]; Table 1): 5.07; pKi [2]: 7.24; type of reversible inhibition of nNOS [2]: competitive inhibitor; pKi [3]: 3.74; type of reversible inhibition of iNOS ([3]; Cornish-Bowden replots): competitive inhibitor
3 | N=C(NCCC[C@H](NC(=O)[C@@H](N)Cc1ccccc1)C(=O)OCc1ccccc1)N[N+](=O)[O-] [compound 6, L-Phe-L-Arg^NO2 -OBn] (HELM PEPTIDE1{F.[N=C(NCCC[C@H](N[*:1])C(=O)[*:2])N[N+](=O)[O-]].[c1ccc(CO[*:1])cc1]}$$$$V2.0) | 3.60 | 0.41 | 2.3 | 3.96 | 5.6 | 4.35 | 
4 | N=C(NCCC[C@H](N)C(=O)N[C@@H](CN)C(=O)O)N[N+](=O)[O-] [L-nitroArg-L-Dpr, L-nitroArg-L-2,3-diaminopropanoic acid] (HELM PEPTIDE1{[N=C(NCCC[C@H](N)C(=O)[*:2])N[N+](=O)[O-]].[NC[C@H](N[*:1])C(=O)O]}$$$$V2.0) |  |  |  |  |  |  | most potent inhibitors (based on isoform inhibition data) [2]: most potent
5 | CNC(=N)NCCC[C@H](N)C(=O)O [methyl, N^ω -methyl-L-arginine, reference compound] |  |  |  |  |  |  | pIC50 [2]: 5.00
6 | COC(=O)[C@H](CCCNC(=N)N[N+](=O)[O-])NC(=O)[C@@H](N)Cc1ccccc1 [compound 4, L-Phe-L-Arg^NO2 -OMe] (HELM PEPTIDE1{F.[N=C(NCCC[C@H](N[*:1])C(=O)[*:2])N[N+](=O)[O-]].[CO[*:1]]}$$$$V2.0) | 2.87 | 0.55 | 3.6 | 3.43 | 6.6 | 3.69 | 
7 | N=C(NCCC[C@@H](NC(=O)[C@@H](N)Cc1cnc[nH]1)C(N)=O)N[N+](=O)[O-] [L-His-D-nitroArg] (HELM PEPTIDE1{H.[N=C(NCCC[C@@H](N[*:1])C(=O)[*:2])N[N+](=O)[O-]].[am]}$$$$V2.0) |  |  |  |  |  |  | most potent inhibitors (based on isoform inhibition data) [2]: most potent
8 | CC1CCN=C(N)S1 (stereo not drawn) [2-Amino-5,6-dihydro-6-methyl-4H-1,3-thiazine] |  |  |  |  |  |  | selectivity in favor of iNOS [4]: 10-40 fold
9 | N=C(N)NN [Aminoguanidine] |  |  |  |  |  |  | selectivity for iNOS over eNOS [4]: 500 fold; selectivity for iNOS over nNOS [4]: 50 fold
10 | C#CCNC(=N)NCCC[C@H](N)C(=O)O [propargyl, N^ω -propargyl-L-arginine, reference compound] |  |  |  |  |  |  | pKi [2]: 6.37
11 | COC(=O)[C@@H](CCCNC(=N)N[N+](=O)[O-])NC(=O)[C@@H](N)Cc1ccccc1 [compound 10, L-Phe-D-Arg^NO2 -OMe] (HELM PEPTIDE1{F.[N=C(NCCC[C@@H](N[*:1])C(=O)[*:2])N[N+](=O)[O-]].[CO[*:1]]}$$$$V2.0) | 3.82 | 83.3 | 1.7 | 4.05 | 0.02 | 2.12 | 
12 | NC(=NCCC[C@H](N)C(=O)O)N[N+](=O)[O-] [N-nitro-L-arginine, N^ω --Nitro-L-arginine, reference compound] |  |  |  |  |  |  | selectivity for nNOS over iNOS [4]: about 300 fold; pKi ([2]; read-out: KI (time-dependent inhibition), with nNOS): 5.03; kinact ([2]; with nNOS): 0.132 min⁻¹
13 | CCSC(=N)N [S-ethylisothiourea] |  |  |  |  |  |  | selectivity in favor of iNOS [4]: 10-40 fold
14 | COC(=O)[C@H](Cc1ccccc1)NC(=O)[C@H](N)CCCNC(=N)N[N+](=O)[O-] [compound 8, D-Arg^NO2 -L-Phe-OMe] | 2.85 | 22.1 | 4.8 | 3.54 | 0.22 | 2.19 | 
15 | COC(=O)[C@H](Cc1ccccc1)NC(=O)[C@@H](N)CCCNC(=N)N[N+](=O)[O-] [compound 3, L-Arg^NO2 -L-Phe-OMe] | 3.40 | 3.2 | 28.6 | 4.85 | 8.9 | 4.35 | 
16 | N=C(NCCC[C@H](NC(=O)[C@@H](N)Cc1ccccc1)C(=O)O)N[N+](=O)[O-] [compound 2, L-Phe-L-Arg^NO2] (HELM PEPTIDE1{F.[N=C(NCCC[C@H](N[*:1])C(=O)O)N[N+](=O)[O-]]}$$$$V2.0) | 3.31 | 0.66 | 3.5 | 3.85 | 5.3 | 4.03 | time-dependent inhibition of any of the isoforms [2]: None

Row | SMILES | pKi ([1]; Table 2, Dixon plots) | nNOS/iNOS selectivity [2] | nNOS/eNOS selectivity [2] | pKi [2, 5] | iNOS/eNOS selectivity [3] | pKi [3, 6] | also measured
17 | CSC(N)=NCCC[C@H](N)C(=O)O [S-Methyl-L-thiocitrulline] |  |  |  |  |  |  | selectivity for nNOS than eNOS [4]: 10 fold
18 | N=C(NCCC[C@H](N)C(=O)N[C@H](CC(N)=O)C(N)=O)N[N+](=O)[O-] [L-nitroArg-D-Asn] (HELM PEPTIDE1{[N=C(NCCC[C@H](N)C(=O)[*:2])N[N+](=O)[O-]].[dN].[am]}$$$$V2.0) |  |  |  |  |  |  | most potent inhibitors (based on isoform inhibition data) [2]: most potent
19 | N=C(NCCC[C@@H](NC(=O)[C@H](N)CCCN)C(N)=O)N[N+](=O)[O-] [D-Orn-D-nitroArg] (HELM PEPTIDE1{[NCCC[C@@H](N)C(=O)[*:2]].[N=C(NCCC[C@@H](N[*:1])C(=O)[*:2])N[N+](=O)[O-]].[am]}$$$$V2.0) |  |  |  |  |  |  | most potent inhibitors (based on isoform inhibition data) [2]: most potent
20 | CCSC(N)=NCCC[C@H](N)C(=O)O [S-ethyl-L-thiocitrulline] |  |  |  |  |  |  | selectivity for nNOS than eNOS [4]: 50 fold
21 | N=C(NCCC[C@H](N)C(=O)N[C@@H](Cc1ccccc1)C(=O)O)N[N+](=O)[O-] [compound 1, L-Arg^NO2 L-Phe] | 3.40 | 8.9 | 21.9 | 4.74 | 2.5 | 3.80 | time-dependent inhibition of any of the isoforms [2]: None
22 | CC(=N)NCCCC[C@H](N)C(=O)O [L-N^6-(1-Iminoethyl)lysine] |  |  |  |  |  |  | selectivity for iNOS over eNOS [4]: 30 fold; selectivity for iNOS over nNOS [4]: 13 fold
23 | N=C(NCCC[C@@H](NC(=O)[C@@H](N)CCCCN)C(N)=O)N[N+](=O)[O-] [L-Lys-D-nitroArg] (HELM PEPTIDE1{K.[N=C(NCCC[C@@H](N[*:1])C(=O)[*:2])N[N+](=O)[O-]].[am]}$$$$V2.0) |  |  |  |  |  |  | most potent inhibitors (based on isoform inhibition data) [2]: most potent
24 | COC(=O)[C@@H](Cc1ccccc1)NC(=O)[C@H](N)CCCNC(=N)N[N+](=O)[O-] [compound 9, D-Arg^NO2 -D-Phe-OMe] | 3.43 | 43.3 | 2.5 | 3.82 | 0.058 | 2.19 | 
25 | COC(=O)[C@H](CCCNC(=N)N[N+](=O)[O-])NC(=O)[C@H](N)Cc1ccccc1 [compound 11, D-Phe-L-Arg^NO2 -OMe] (HELM PEPTIDE1{[dF].[N=C(NCCC[C@H](N[*:1])C(=O)[*:2])N[N+](=O)[O-]].[CO[*:1]]}$$$$V2.0) | 2.07 | 3 | 21.3 | 3.40 | 7.1 | 2.92 | 
26 | N=C(NCCC[C@@H](NC(=O)[C@H](N)Cc1ccccc1)C(=O)O)N[N+](=O)[O-] [compound 13, D-Phe-D-Arg^NO2] (HELM PEPTIDE1{[dF].[N=C(NCCC[C@@H](N[*:1])C(=O)O)N[N+](=O)[O-]]}$$$$V2.0) | 4.05 | 800 | 5.3 | 4.77 | 0.0066 | 1.87 | selectivity of eNOS over iNOS [1]: 152 fold; time-dependent inhibition of any of the isoforms [2]: None
27 | N=C(NCCC[C@H](N)C(=O)N[C@@H](CCN)C(=O)O)N[N+](=O)[O-] [L-nitroArg-L-Dbu, L-nitroArg-L-2,4-diaminobutanoic acid] (HELM PEPTIDE1{[N=C(NCCC[C@H](N)C(=O)[*:2])N[N+](=O)[O-]].[Dab]}$$$$V2.0) |  |  |  |  |  |  | most potent inhibitors (based on isoform inhibition data) [2]: most potent
28 | N=C(NCCC[C@H](N)C(=O)N[C@@H](Cc1ccccc1)C(=O)OCc1ccccc1)N[N+](=O)[O-] [compound 5, L-Arg^NO2 -L-Phe-OBn] | 3.90 | 0.33 | 2.3 | 4.26 | 6.9 | 4.74 | 
29 | N=C(NCCC[C@@H](NC(=O)[C@H](N)CCCCN)C(N)=O)N[N+](=O)[O-] [D-Lys-D-nitroArg] (HELM PEPTIDE1{[dK].[N=C(NCCC[C@@H](N[*:1])C(=O)[*:2])N[N+](=O)[O-]].[am]}$$$$V2.0) |  |  |  |  |  |  | most potent inhibitors (based on isoform inhibition data) [2]: most potent
30 | N=C(NCCC[C@H](N)C(=O)N[C@H](CCC(N)=O)C(N)=O)N[N+](=O)[O-] [L-nitroArg-D-Gln] (HELM PEPTIDE1{[N=C(NCCC[C@H](N)C(=O)[*:2])N[N+](=O)[O-]].[dQ].[am]}$$$$V2.0) |  |  |  |  |  |  | most potent inhibitors (based on isoform inhibition data) [2]: most potent
31 | COC(=O)[C@@H](CCCN=C(N)N[N+](=O)[O-])NC(=O)[C@H](N)Cc1ccccc1 [compound 12, D-Phe-D-Arg^NO2 -OMe] (HELM PEPTIDE1{[dF].[N=C(NCCC[C@@H](N[*:1])C(=O)[*:2])N[N+](=O)[O-]].[CO[*:1]]}$$$$V2.0) | 5.30 |  | 2.5 | 5.70 | 0.0014 | 2.44 | selectivity of eNOS over iNOS [1]: 714 fold; time-dependent inhibition of any of the isoforms [2]: None
32 | COC(=O)[C@@H](Cc1ccccc1)NC(=O)[C@@H](N)CCCNC(=N)N[N+](=O)[O-] [compound 7, L-Arg^NO2 -D-Phe-OMe] | 3.28 | 1.1 | 5.7 | 4.04 | 5.3 | 4.00 | 
